PubChem BioAssay (NCI)
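Briefly, cells in 96-well plates were exposed to five compound concentrations for 48 h, and endpoints were estimated by linear interpolation. At the TGI there is no net growth.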

How the values were obtained:
Assay in all cases: NCI tumour cell line growth inhibition, 48 h
BT-549 breast = system: BT-549 breast
HCT-116 colon = system: HCT-116 colon
HOP-62 NSCLC = system: HOP-62 NSCLC
HOP-92 NSCLC = system: HOP-92 NSCLC
HS 578T breast = system: HS 578T breast
HT29 colon = system: HT29 colon
IGROV1 ovarian = system: IGROV1 ovarian
MDA-MB-231 breast = system: MDA-MB-231 breast
NCI-H226 lung = system: NCI-H226 lung
SF-268 CNS = system: SF-268 CNS
SK-MEL-5 melanoma = system: SK-MEL-5 melanoma
SN12C renal = system: SN12C renal
SNB-19 CNS = system: SNB-19 CNS
SNB-75 CNS = system: SNB-75 CNS
SW-620 colon = system: SW-620 colon
T-47D breast = system: T-47D breast
UACC-257 melanoma = system: UACC-257 melanoma

Structure (SMILES)	TGI (BT-549 breast) [µM]	TGI (HCT-116 colon) [µM]	TGI (HOP-62 NSCLC) [µM]	TGI (HOP-92 NSCLC) [µM]	TGI (HS 578T breast) [µM]	TGI (HT29 colon) [µM]	TGI (IGROV1 ovarian) [µM]	TGI (MDA-MB-231 breast) [µM]	TGI (NCI-H226 lung) [µM]	TGI (SF-268 CNS) [µM]	TGI (SK-MEL-5 melanoma) [µM]	TGI (SN12C renal) [µM]	TGI (SNB-19 CNS) [µM]	TGI (SNB-75 CNS) [µM]	TGI (SW-620 colon) [µM]	TGI (T-47D breast) [µM]	TGI (UACC-257 melanoma) [µM]
C=C(CN(C)C)C(=O)c1ccccc1	45	16.7	> 58.3	5.79	> 100	24.2	36.3	31.4	36	> 58.2	28.8	38.7	53.1	39.7	5.07	4.93	27.6
CC(=O)O[C@H]1[C@@H](OC2CCCC2(c2ccccc2)c2ccccc2)O[N+]([O-])=C[C@@H]1c1ccccc1 (stereo not given in full)	17.5	10.5	38.2	18.2	20.5	6.94	7.61	40.9	80.2	13.4	25.6	16.9	29.7	18	17.6	> 37.9	23.6
COC1=CC(=O)C2=C(C1=O)[C@H]1CC[C@]3(C)C(=O)CC[C@H]3[C@@H]1CC2	71.2	34.1	> 100	35.8	70.5	75.3	44.5	16.9	49.7	46.3	33.2	44.5	> 100	> 100	67.7	57.2	58.7
O=c1c2ccccc2nc(-c2ccccc2)n1/N=C/c1ccccc1[N+](=O)[O-]	> 100	> 100	37.1	98.4	15.9	> 100	> 100	> 72.8	> 100	> 68.7	> 100	> 100	56.7	34.2	> 100	> 100	> 100
CC(O)C1(O)C(O)CC(OC2c3cc4c(c(O)c3[C@@H]3C[C@@]2(C)OC32C=c3cc[nH]c3=N2)C(=O)c2cccc(O)c2C4=O)OC1C (stereo not given in full)	19.3	3.31	5.37	7.44	5.87	2.68	3.22	3.89	3.17	4.38	5.56	1.13	11.3	8	5.96	9.07	3.12
COc1cc2c(SCCN(C)C)nc3ccccc3c2c2ccccc12	21.7	2.83	2.81	5.83	8.61	> 100	2.77	5.52	8.12	5.39	3.08	6.41	8.14	8.32	3.64	7.66	3.38
CN1CCOC1(C)c1ccccc1 (stereo not given)	> 100	> 100	> 100	> 100	> 100	> 100	> 100	> 100	> 100	> 100	> 100	> 100	> 100	> 100	> 100	> 100	> 100
COC(=O)c1cc(C#N)[nH]c1-c1ccc(Br)s1	22.8	26.3	21.4	15.3	20.8	24.8	20.9	30.7	26.3	24.2	15.3	26	22.3	24.9	29.9	17.2	24.9
CC(=O)n1nc(-c2[nH]c(C)c(-c3nn(C(C)=O)c(=S)o3)c2C)oc1=S	> 100	> 100	> 100	> 100	> 100	> 100	> 100	> 100	> 100	> 100	> 100	> 100	> 100	> 100	> 100	> 100	> 100
CSc1ncc2c(C#N)c3n(C)c4ccccc4n3c(=O)c2n1	> 100	> 100	> 100	> 100	> 100	> 100	> 100	> 100	> 100	> 100	> 100	> 100	> 100	> 100	> 100	> 100	> 100
